Data reported in article PMC10459814.

Experiments:
[1] = tested on: CT26 murine colon carcinoma cells; assay: In vivo antitumor efficacy and safety in CT26 tumor-bearing BALB/c mice; conditions: for tumor weight reduction / relative tumor volume growth rate (T/C): CT26 tumor-bearing BALB/c mice; for tumor weight reduction: 21 days
Source text: Given its promising in vitro enzymatic potencies, compound NK3 was further evaluated for antitumor efficacy in vivo with a model by injecting immunocompetent BALB/c mice with CT26 murine colon carcinoma cells (Figure 5). CT26 cells, derived from the epithelial glands of BALB/C mice with colon cancer, are commonly employed as a model for investigating immunotherapies and studying host immune responses. […] Dose-dependent growth-inhibitory potency of NK3 was observed (Figure 5B).
Figure 5 In vivo antitumor activity of compound NK3 in CT26 tumor-bearing mice. […] (B) Tumor weight of the excised tumors of each group. (C) Tumor volume of the mice in each group during the observation period. (D) Body weight of the mice from each group at the end of the observation period. Body weight change of each group of mice. The data were presented as the mean ± SD. p < 0.05 (versus the vehicle control group). The antitumor assay in CT26 tumor-bearing mice was carried out in one experiment with previous work.
Pathological analysis of tissue sections from major organs (heart, liver, lung, spleen, and kidney) of CT26 tumor-bearing mice. Hematoxylin and eosin (H&E) were used to stain the organs with representative images captured. The H&E staining of CT26 tumor-bearing mice was carried out in one experiment with previous work.

HepG2 = assay: MTT cytotoxicity assay, HepG2; assay type: cell-based; conditions: Homo sapiens, mean ± SD
Experimental: (§1) The cytotoxic activity of these three compounds was evaluated against HepG2, Hct-116, and SKOV3 cancer cells by MTT assay, using doxorubicin (DOX) as the positive control.

Hct-116 = assay: MTT cytotoxicity assay, Hct-116; assay type: cell-based; conditions: Homo sapiens, mean ± SD
Experimental: as §1

SKOV3 = assay: MTT cytotoxicity assay, SKOV3; assay type: cell-based; conditions: Homo sapiens, SK-OV-3, mean ± SD
Experimental: as §1

human IDO1 [2] = molecular target: T1, human IDO1 (Homo sapiens, UniProt P14902); assay: IDO1 standard enzymatic inhibition assay
T1 sequence (P14902 whole entry): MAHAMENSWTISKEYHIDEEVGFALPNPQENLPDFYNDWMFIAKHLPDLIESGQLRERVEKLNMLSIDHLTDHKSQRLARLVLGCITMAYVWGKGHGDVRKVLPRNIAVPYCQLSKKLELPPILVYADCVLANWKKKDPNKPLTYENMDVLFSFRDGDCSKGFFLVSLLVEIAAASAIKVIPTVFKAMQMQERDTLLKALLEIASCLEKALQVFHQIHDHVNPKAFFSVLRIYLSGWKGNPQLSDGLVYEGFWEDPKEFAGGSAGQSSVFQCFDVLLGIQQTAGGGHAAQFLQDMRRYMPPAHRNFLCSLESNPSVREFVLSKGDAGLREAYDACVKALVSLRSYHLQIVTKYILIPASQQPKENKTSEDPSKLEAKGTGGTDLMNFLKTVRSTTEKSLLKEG

human IDO1 [3] = molecular target: T1, human IDO1; assay: SPR binding assay (Biacore T200) with IDO1; conditions: immobilized recombinant IDO1, 0.078-10.0 μM, read-out: KD (equilibrium dissociation constant) with IDO1
Experimental: A surface plasmon resonance (SPR)-based binding assay was conducted to validate the direct interaction between NK3 and IDO1 protein using a Biacore T200 optical biosensor. This analytical method is valuable for determining the kinetic and thermodynamic parameters of ligand–protein complex formation and is widely employed in the study of enzyme–enzyme/inhibitor interactions. The binding affinity between compound NK3 and IDO1 was assessed utilizing Biacore analysis software, accompanied by measurements of kinetic association and dissociation. As depicted in Figure 3, compound NK3 efficiently interacted with the immobilized protein to induce a concentration-dependent response for association or dissociation, respectively. […] The binding assays confirmed the direct binding of compound NK3 to IDO1 protein.
Figure 3 The binding affinity of NK3 with recombinant IDO1 determined by the SPR assay. Concentration from top to bottom: 0.078 μM, 0.156 μM, 0.313 μM, 0.625 μM, 1.25 μM, 2.5 μM, 5.0 μM, and 10.0 μM.

recombinant STAT3 = recombinant STAT3 (Homo sapiens, UniProt P40763); assay: SPR binding assay (BIAcore) with STAT3; conditions: recombinant STAT3, 0.078-10.0 μM, read-out: KD (equilibrium dissociation constant) with STAT3
Chain of recombinant STAT3 (P40763 whole entry, species assumed): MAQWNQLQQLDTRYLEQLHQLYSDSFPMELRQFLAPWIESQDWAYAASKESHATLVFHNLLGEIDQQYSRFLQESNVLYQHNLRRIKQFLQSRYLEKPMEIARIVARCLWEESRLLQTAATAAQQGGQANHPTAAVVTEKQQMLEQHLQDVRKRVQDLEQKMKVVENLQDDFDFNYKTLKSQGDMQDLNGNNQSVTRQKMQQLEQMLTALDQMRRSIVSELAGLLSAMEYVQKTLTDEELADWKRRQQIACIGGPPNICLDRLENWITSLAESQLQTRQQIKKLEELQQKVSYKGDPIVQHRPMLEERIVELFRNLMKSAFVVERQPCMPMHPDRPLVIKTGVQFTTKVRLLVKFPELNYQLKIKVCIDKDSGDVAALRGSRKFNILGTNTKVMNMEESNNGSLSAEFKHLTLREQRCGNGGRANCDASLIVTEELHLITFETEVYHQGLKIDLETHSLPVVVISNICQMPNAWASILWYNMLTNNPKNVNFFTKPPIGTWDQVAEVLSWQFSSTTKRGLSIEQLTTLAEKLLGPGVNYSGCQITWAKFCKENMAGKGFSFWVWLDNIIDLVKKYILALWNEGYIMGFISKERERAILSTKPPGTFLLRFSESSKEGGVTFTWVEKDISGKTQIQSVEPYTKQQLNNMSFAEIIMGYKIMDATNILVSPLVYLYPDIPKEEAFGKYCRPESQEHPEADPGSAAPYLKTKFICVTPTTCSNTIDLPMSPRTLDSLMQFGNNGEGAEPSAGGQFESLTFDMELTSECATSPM
Experimental: In order to further investigate the direct interaction between NK3 and STAT3, we conducted an SPR binding assay.
Figure 8 The binding affinity of NK3 with recombinant STAT3 determined by the SPR assay. Concentration from top to bottom: 0.078 μM, 0.156 μM, 0.313 μM, 0.625 μM, 1.25 μM, 2.5 μM, 5.0 μM, and 10.0 μM.

[4] = tested on: human liver cancer HepG2 cells xenograft; assay: In vivo antitumor efficacy in nude mice bearing HepG2 xenograft; conditions: for tumor growth inhibition (tumor weight): 21 days
Source text: In order to ascertain the viability of IDO1 as an alternative target for compound NK3, a xenograft model was established by inoculating nude mice with human liver cancer HepG2 cells, subsequent to two injections of two doses of NK3 administered at three-day intervals. […] The antitumor effect of NK3 was also reflected in a delayed increase in xenograft volume (Figure 7C).
Figure 7 In vivo antitumor activity of compound NK3 in nude mice bearing HepG2 xenograft model. (A) The images of the harvested tumors from the mice after administration with NK3 (10 and 20 mg/kg) and the positive control doxorubicin (DOX) (5 mg/kg) every 3 days for 3 weeks. (B) Tumor weight of the excised tumors of each group. (C) Tumor volume of the mice in each group during the observation period. (D) Body weight of the mice from each group at the end of the observation period. Body weight change of each group of mice. The data were presented as the mean ± SD. p < 0.05 (versus the vehicle control group). The antitumor assay in nude mice was carried out in one experiment with previous work. TEXT PRINTED IN THE PICTURE: (B) Dox: 53.0% (5 mg/kg) | (B) NK-3: 61.1% (10 mg/kg); 64.4% (20 mg/kg) DOUBTS OF THE COPYIST ABOUT THIS PICTURE: Panel B: the picture prints no measure for the percentages over the bars (53.0%, 61.1%, 64.4%). The axis reads only 'Tumor weight (g)', so they are copied without a measure.

[5] = tested on: STAT3 nuclear translocation; assay: Immunofluorescence staining of IL-6-induced STAT3 nuclear translocation in HepG2 cells; assay type: cell-based, human; conditions: 2 μM, IL-6 stimulation 30 min
Experimental: The central role of nuclear translocation in the functioning of transcription factors is evident. The activation of STAT3 transcription is reliant on its nuclear translocation and subsequent binding to target DNA [43], so we further investigated the inhibitory effect of NK3 on preventing STAT3 from translocating to the nucleus by immunofluorescence staining. To this end, HepG2 cells were treated with 2 μM NK3 for […], and then IL-6 was added to stimulate STAT3 translocation for 30 min.
Figure 9 NK3 inhibited the nuclear translocation of STAT3. […] Cells were treated with 2 μM NK3 for 12 h with or without pre-treatment with 50 ng/mL of IL-6 for 30 min. Then, cells were fixed and stained with anti-p-STAT3 and DAPI before being subjected to Zeiss LSM700 Confocal Microscope for analysis.

Compound | tumor weight reduction ([1]; 100 mg/kg intraperitoneal) [%] | IC50 (HepG2) [µM] | IC50 (Hct-116) [µM] | IC50 (SKOV3) [µM] | melting point [°C] | IC50 (human IDO1 [2]) [nM] | further results
Nc1nonc1C(=NO)Nc1ccc(F)c(Cl)c1 [IDO5L, reference compound] | 70.9 | > 40 | > 40 | > 40 | – | – | –
COc1cccc2c1C(=O)c1c(O)c3c(c(O)c1C2=O)C[C@@](O)(C(=O)CO)C[C@@H]3O[C@H]1C[C@H](N)[C@H](O)[C@H](C)O1 [DOX, doxorubicin, reference compound] | – | 0.28 ± 0.03 | 0.37 ± 0.02 | 0.58 ± 0.28 | – | – | –
Cn1cc(C[C@H](N)C(=O)O)c2ccccc21 [Compound 1-MT, 1-methyl-L-tryptophan, reference compound] | 45.6 | – | – | – | – | – | –
O=C1C(NC(Cc2ccccc2)C(=O)NCCc2ccccc2)=C/C(=N/O)c2ccccc21 (stereo not shown) [NK2, (Z)-2-((4-(hydroxyimino)-1-oxo-1,4-dihydronaphthalen-2-yl)amino)-N-phenethyl-3-phenylpropanamide] | – | 5.08 ± 0.33 | 5.84 ± 1.34 | 4.25 ± 1.65 | 197.2 to 198.6 | 8220 | –
CCCCC(CC)CNC(=O)C(Cc1ccccc1)NC1=C/C(=N/O)c2ccccc2C1=O (stereo not shown) [NK1, (Z)-N-(2-ethylhexyl)-2-((4-(hydroxyimino)-1-oxo-1,4-dihydronaphthalen-2-yl)amino)-3-phenylpropanamide] | – | 1.28 ± 0.27 | 0.49 ± 0.14 | 0.95 ± 0.18 | 120.3 to 121.8 | 3450 | –
CCCNC(=O)C(Cc1ccccc1)NC1=C/C(=N/O)c2ccccc2C1=O (stereo not shown) [NK3, (Z)-2-((4-(hydroxyimino)-1-oxo-1,4-dihydronaphthalen-2-yl)amino)-3-phenyl-N-propylpropanamide] | 65.8 | 0.16 ± 0.04 | 0.18 ± 0.04 | 0.48 ± 0.23 | – | 60 | Kd (human IDO1 [3]): 160 nM; Kd (recombinant STAT3): 170 nM; relative tumor volume growth rate (T/C) ([1]; 50 mg/kg): 56.00%; tumor weight reduction ([1]; 50 mg/kg intraperitoneal): 42.8%; relative tumor volume growth rate (T/C) ([1]; 100 mg/kg): 29.07%; pathology (H&E) of heart, liver, spleen, lung, kidney ([1]; CT26 tumor-bearing mice): no obvious morphological and pathological changes; body weight change versus vehicle ([1]; CT26 tumor-bearing mice, 21 days of treatment): no significant change in body weight; tumor growth inhibition (tumor weight) ([4]; 10 mg/kg intravenous every 3 days): 61.1%; tumor growth inhibition (tumor weight) ([4]; 20 mg/kg intravenous every 3 days): 64.4%; body weight / tolerability ([4]; compared to DOX): did not cause significant weight loss; STAT3 nuclear translocation [5]: significantly inhibited
